One assay has as its system TNF-α. Description: High throughput screening in LPS stimulated THP-1 cells, TNF-α release by ELISA. The class given is cell-based. How it is done: (§1) The assay was designed on the basis of the reference, The Journal of Immunology, 1993, 151 (10), 5631-5638, the disclosure of which is incorporated by reference for the teaching of the assay.
(§2) THP-1 (ATCC, USA) cells were cultured in RPMI 1640 (Roswell Park Memorial Institute) culture medium (Gibco BRL, Pasley, UK) containing 100 U/ml penicillin, […] streptomycin (100× solution, Sigma Chemical Co. St Louis, Mo., USA) and 10% fetal bovine serum (Gibco BRL, Pasley, UK). The cells were differentiated into macrophages with phorbol myristate acetate (Sigma, USA) in 96 well culture plates. Following cell plating, various concentrations of the compound of formula I or the compound of formula II or vehicle (0.5% DMSO) were added to each well and the plate was incubated for 30 min at 37° C. Finally, per well, 20 μL of LPS (10 μg/mL stock solution) (Escherchia coli 0127:B8, Sigma Chemical Co., St. Louis, Mo.) was added for a final concentration of 1 μg/mL. Plates were incubated at 37° C. for 24 hours in an atmosphere of 5% CO2. Supernatants were harvested, and assayed for TNF-α and IL-6 by ELISA as described by the manufacturer (BD Biosciences). Percent inhibition of cytokine release compared to the control was calculated. The 50% inhibitory concentration (IC50) values were calculated by a nonlinear regression method.
(§3) Dexamethasone was used as standard.
In general terms: An ELISA detects its analyte on a solid surface through an enzyme-linked reagent.

The next assay deals with IL-6. Description: High throughput screening in LPS stimulated THP-1 cells, IL-6 release by ELISA. The class given is cell-based. How it is done:
as §1, §2, §3

The mark [1] stands for this setting: Homo sapiens, LPS (1 μg/mL) stimulated THP-1 cells differentiated with PMA, 24 hours, ELISA.
[2] abbreviates: preparative HPLC fractions tested by method of Example 7.
[3] abbreviates: Homo sapiens, at 1 μg/ml, LPS stimulated THP-1 cells.

As usually defined, the IC50 is the concentration that gives 50% inhibition. As usually defined, the inhibition is the relative decrease from the control value, in per cent. A higher inhibition goes with strong suppression.

Regarding `CCCCCCCCCCCCO/N=N/OC` [Compound of formula II], the IC50 in the assay on TNF-α (setting [1]) was 1.5 mg/L; in the assay on IL-6 (setting [1]) it was 1.2 mg/L. Also, the “TNF-α inhibition of HPLC fractions (qualitative)” value with TNF-α (setting [2]) is “exhibited IL-6 and TNF-α inhibition”. In addition, in the assay on IL-6 (setting [2]), the “IL-6 inhibition of HPLC fractions (qualitative)” value is “exhibited IL-6 and TNF-α inhibition”.

For the compound `C[C@@H]1C[C@H]2[C@@H]3CCC4=CC(=O)C=C[C@]4(C)[C@@]3(F)[C@@H](O)C[C@]2(C)[C@@]1(O)C(=O)CO` [Dexamethasone, reference compound], the figures for the inhibition at 1 µg/mL in the assay with TNF-α (setting [3]) and in the assay with IL-6 (setting [3]) were 73% and 84%, respectively.
